Laboratory results as given in patent US6723712B2, “Antiviral agent for use in treatment of cancer” (Institut Gustave Roussy, priority 1999, dated 2004).
“Also recorded” adds a separate entry of the source.

Columns and labels:
[1] = test system: non-virally induced tumors; assay: Tumor growth of non-virally induced human xenografts in nude mice; type: in vivo; details: cidofovir intra-tumor 60 mg/kg daily 5 days + irradiation 7 Gy on day 3 and 5
Experimental: (§1) In vivo data are reported as the percentage of original (day 0) tumor volume and plotted as fractional tumor volume±S.E. Statistical significance was determined by Kruskal/Wallis and Mann-Withney U tests.
(§2) Female Swiss nu/nu mice were housed throughout experiments in sterile isolators and fed ad libitum with irradiated food (UAR, Villemoisson/Orge, France) and filtered water. Experiments were performed according to the regulation n°86/609/CEE of the European Community. Cell lines were established in vivo in Swiss athymic mice by subcutaneous injection in the right flank of 5×10^6 cells per animal and subsequently maintained in vivo by sequential passages in animals aged 6 to 8 weeks. Nude mice bearing 500-1000 mm3 tumors were used for in vivo experiments. Two types of control were used including both injection of PBS (intra-tumor and intravenous (IV)), irradiation alone, or chemotherapy alone.
Irradiation of cells was performed using a ^137Cs γ-rays source at a dose rate of 1.45 Gy.min^−1. […] Quantification of radiosensitivity was obtained by the surviving fraction at 2 Gy (SF2). Cell survival was also assessed by using proliferation tests (incorporation of tritiated thymidine and MTT). […]
The example presented herewith also relates to the combination of cidofovir with irradiation which was evaluated in vivo in various human viral-associated and also in non viral associated human cancers. […]

RAJI cells = assay: Apoptosis assay (FACS, sub-G1 peak) in RAJI cells; type: cell-based, human; details: Cidofovir 10 μg/ml combined with irradiation (3 and 6 Gy)
Experimental: (§3) a, RAJI cells were cultured in the presence of Cidofovir (5 and 10 μg/ml) and irrediated […] with 3 Gy and then assayed for apoptosis by FACS analysis. C15 tumors were injected intra-tumorally for 5 days with Cidofovir ([…]) and received 7 Gy on day 3 and 5. Animals were sacrified on day 7 and tumors were dissected and prepared for FACS analysis of propidium-iodide nuclei staining as described above.
(§4) The cell cycle distribution was estimated by staining ethanol-fixed cells with propidium iodide and monitoring by FACScan flow cytometer (Becton Dickinson) using cellQuest software. Briefly, 1×10^6 cells were cultured without or with 5 and 10 μg/ml of Cidofovir, 24 hours later cells were irradiated with 3 and 6 Gy and collected 12 and 24 hours after irradiation. The percentage of apoptotic cells was determined by sub-G1 peak.

E6 [2] = assay: Immunoblot densitometry of E6 in HEP2 cells; type: cell-based, HPV; details: HEP2, Cidofovir 10 μg/ml, scored 1 without Cidofovir
Experimental: (§5) a2b2 HEP2 (a) and HTB33 (b) cells were cultured in the presence or absence of Cidofovir (10 μg/ml) for 3 and 6 days, and cells were collected in exponential phase, lysed and total protein were immunoblotted with the Ab-1 anti-E7, C1P5 […], and DO7 anti-p53. The blots were stripped and re-probed with a monoclonal β-actin antibody.
(§6) To prepare total proteins, cells lysates were extracted with lysis buffer 50 mM tris, pH 8, 120 mM NaCl, 0,1% SDS, and 0,5% NP-40. The protein concentration in the soluble fraction was determined by using a BioRad protein assay reagent. The viral oncoprotein LMP1 was detected by immunoblotting with a monoclonal anti-LMP1 antibody (clone CS1,CS2,CS3 & CS4 cocktail, RDI). The following antibodies were used: anti-Bcl2 (clone 100 Santa Cruz Biotechnology), anti-Bax (clone B-9, Santa Cruz, anti-E6 (clone CIP5, abcam), anti-E7 (clone Ab-1, oncogene), anti-p53 (clone DO7, Dako). Anti β-actin (clone AC-40, Sigma) was used to control protein loading. Autoradiograms of the Western blot were scanned with the Gil doc 1000 image scanner (Bio-rad, Hercules, Calif.) and densitometric analysis of the bands was performed using the molecular analyst software program (Bio-rad, Hercules, Calif.).

LMP-1 [3] = assay: Western blot of LMP-1 in RAJI cells; type: cell-based, EBV
Experimental: b, RAJI cells were cultured in the presence or absence of Ciodofovir (10 μg/ml). […] For C15, at day 7 portions of tumors where lysed in RIPA buffer and protein extracts were immunoblotted with anti-LMP-1 antibody. The blot from b was stripped and re-probed with a monoclonal β-actin antibody.
as §6

C15 tumors = assay: Apoptosis assay (FACS, propidium iodide) in C15; type: in vivo, human; details: C15, Cidofovir combined with irradiation
Experimental: as §3, §4

[4] = test system: cervical carcinoma xenografts; details: cited from earlier work
EBV and HPV cancer cells = assay: Radiation-induced DNA repair by Fluorescence In Situ Hybridization (FISH); type: cell-based, human; details: FISH (data not shown)
From the text: Cidofovir is a potent inhibitor of the replication of EBV and HPV in cell culture. In addition, the incorporation into the cellular DNA of the infected cell may disrupt the genomic integrity and enhance susceptibility to apoptosis or necrosis.

p53 [5] = assay: Immunoblot densitometry of p53 in HTB33 cells; type: cell-based, human; details: HTB33, Cidofovir 10 μg/ml, scored 1 without Cidofovir
Experimental: as §5, §6

[6] = test system: EBV+ and HPV+ cell lines (C15, Raji, HTB33, HEP2); assay: Clonogenic survival and proliferation test with irradiation, EBV+ and HPV+ cell lines; type: cell-based, human; details: cidofovir 1 to 10 μg/ml combined with irradiation, virus-related cells
Experimental: (§7) Irradiation of cells was performed using a ^137Cs γ-rays source at a dose rate of 1.45 Gy.min^−1. Briefly survival curves were obtained by irradiating cells (0 to 6 Gy). The linear-quadratic model was used for fitting survival curves. Quantification of radiosensitivity was obtained by the surviving fraction at 2 Gy (SF2). Cell survival was also assessed by using proliferation tests (incorporation of tritiated thymidine and MTT). Irradiation of animals was performed using a 200 kv apparatus.
(§8) It was studied in EBV+ human carcinoma C15 cells, EBV+ lymphoma Raji cells, 2 HPV+ carcinoma HTB33 and HEP2 cells. The effect of the combination was also studied in 3 human cell lines lacking the viral infection namely Ramos (lymphoma) HTB31 and SCC97 (carcinoma) cells.
(§9) For each cell line, several concentrations of cidofovir were used in vitro in combination with irradiation (between 1 and 10 μg/ml). The effect of the combined treatment was evaluated using both a proliferation test and a clonogenic assay for cell survival.

[7] = test system: Ramos, HTB31, and SCC97 cells; assay: Clonogenic survival and proliferation test with irradiation, non virus-containing cells; type: cell-based, human; details: cidofovir 1 to 10 μg/ml combined with irradiation, non virus-related cells
Experimental: as §7, §8, §9

Bax = assay: Western blot of Bax in EBV+ cells; type: cell-based, human; details: Cidofovir 10 μg/ml, 48 hrs
Experimental: (§10) b, RAJI cells were cultured in the presence or absence of Ciodofovir (10 μg/ml). At 48 hrs, cells were harvested and analyzed for the expression of LMP1, bcl-2 and bax by Western-blot. For C15, at day 7 portions of tumors where lysed in RIPA buffer and protein extracts were immunoblotted with anti-LMP-1 antibody. The blot from b was stripped and re-probed with a monoclonal β-actin antibody.
as §6

HPV+ tumors = assay: Histological sections of HPV+ tumors; type: in vivo, mice; details: Cidofovir combined with irradiation, 2 HPV+ models (data not shown)
From the text: At 10 day after treatment, mice with HPV+ tumors from all groups were sacrified and tumors were excised and fixed in 10% neutral buffered formalin (NBF). The sections from each group were heamatoxylin and eosin (H&E)-stained for histological analysis.

E7 = assay: Immunoblot of E7 in HPV+ HTB33 and HEP2 cells; type: cell-based; details: HPV+ cells exposed to Cidofovir 10 μg/ml
Experimental: as §5, §6

E6 [8] = assay: Immunoblot densitometry of E6 in HTB33 cells; type: cell-based, HPV; details: HTB33, Cidofovir 10 μg/ml, scored 1 without Cidofovir
Experimental: as §5, §6

p53 [9] = assay: Immunoblot densitometry of p53 in HEP2 cells; type: cell-based, human; details: HEP2, Cidofovir 10 μg/ml, scored 1 without Cidofovir
Experimental: as §5, §6

[10] = test system: cell lines derived from human cervical carcinoma; details: cited from earlier work
[11] = test system: C15, Raji, HEP2, HTB33 tumor xenografts; assay: Tumor growth of virus-positive human xenografts in nude mice; type: in vivo
Experimental: as §1, §2, §7
The example presented herewith also relates to the combination of cidofovir with irradiation which was evaluated in vivo in various human viral-associated and also in non viral associated human cancers. The effect of cidofovir alone or combined with irradiation was studied in vivo in nude mice bearing 500-1000 mm3 tumor xenografts. The treatment consisted of 60 mg/kg daily of cidofovir intra-tumor injection for 5 days. In the combined group, irradiation (7 Gy) was performed on day 3 and 5 of cidofovir.

LMP-1 [12] = assay: Immunoblot of LMP-1 in C15 tumors; type: in vivo, EBV; details: intra-tumoral Cidofovir 50 mg/kg/day for 5 days, day 7
Experimental: as §3, §10
To prepare total proteins, cells lysates were extracted with lysis buffer 50 mM tris, pH 8, 120 mM NaCl, 0,1% SDS, and 0,5% NP-40. The protein concentration in the soluble fraction was determined by using a BioRad protein assay reagent. The viral oncoprotein LMP1 was detected by immunoblotting with a monoclonal anti-LMP1 antibody (clone CS1,CS2,CS3 & CS4 cocktail, RDI). […]

human cancer cells = assay: Combination with chemotherapeutic drugs, tumor cell growth; type: cell-based; details: in vitro
Experimental: Similar experiments combining a nucleoside analogue with cytotoxic agents other than irradiation were performed (chemotherapeutic drugs, cytokines). The example presented herewith relates to the combination of cidofovir with chemotherapeutic drugs which was evaluated in vitro and in vivo in various virus-associated and non virus-associated human cancers.

Bcl2 = assay: Western blot of Bcl2 in EBV+ cells; type: cell-based, human; details: Cidofovir 10 μg/ml, 48 hrs
Experimental: as §10, §6

Nc1ccn(C[C@@H](CO)OCP(=O)(O)O)c(=O)n1 [Cidofovir, (S)-1-[3-hydroxy-2-(phosphonomethoxy)propyl]cytosine]
tumor growth [1]: dramatically reduced the growth delay
apoptosis (RAJI cells): marked increase
E6 band density score (E6 [2]; 3 days): 0.7
E6 band density score (E6 [2]; 6 days): 0.25
LMP-1 expression (LMP-1 [3]; 24 hours after exposure (data not shown)): significant inhibition
LMP-1 expression (LMP-1 [3]; RAJI cells, Cidofovir 10 μg/ml, 48 hrs): marked decrease
apoptosis (C15 tumors): marked increase
tumor growth ([4]; administered topically or systemically, nontoxic concentrations): no reduction of tumor growth
tumor size ([4]; injected intratumorally, compared to placebo group): statistically significant reduction in tumor size
radiation-induced DNA repair at the chromosomal level (EBV and HPV cancer cells): no significant change
P53 density score (p53 [5]; 3 days): 2.1
P53 density score (p53 [5]; 6 days): 3.7
radiosensitization (decrease of SF2, surviving fraction at 2 Gy) [6]: increased cell kill
radiosensitization (decrease of SF2, surviving fraction at 2 Gy) ([6]; listed as cidofovir): pronounced radiosensitization
radiosensitization (cell survival) [7]: increased cell kill
radiosensitization (cell survival) ([7]; listed as cidofovir): markedly radiosensitized
Bax expression (Bax): up-regulation
tumor necrosis (histological sections) (HPV+ tumors): increased tumor necrosis
expression of the viral oncoprotein E7 (E7): decreased expression
E6 band density score (E6 [8]; 3 days): 0.67
E6 band density score (E6 [8]; 6 days): 0.32
P53 density score (p53 [9]; 3 days): 1.2
P53 density score (p53 [9]; 6 days): 1.65
cell proliferation [10]: inhibited in a concentration-dependent and in a time-dependent fashion
anti-tumor effect, sub-cutaneous versus intra-tumor administration ([11]; C15, sub-cutaneous 50 mg/kg cidofovir in combination with irradiation): anti-tumor effect of the same magnitude
tumor growth delay ([11]; cidofovir alone, 60 mg/kg daily intra-tumor for 5 days): weak growth delay
tumor growth ([11]; cidofovir intra-tumor 60 mg/kg daily 5 days + irradiation 7 Gy on day 3 and 5): dramatically reduced the growth delay; also recorded: major effect on tumor growth
complete remission of tumors ([11]; combined treatment, 30 to 40 days after the treatment): nearly all the tumors were found to be in complete remission
LMP-1 expression (LMP-1 [12]): marked decrease
effect on tumor cell growth in combination with VP16 (human cancer cells; VP16 5 μg/ml): synergic inhibitory effect
effect on tumor cell growth in combination with cis platinum (human cancer cells; cis platinum 2.5 μg/ml): synergic inhibitory effect
Bcl2 expression (Bcl2): downregulation
